Experimental data published in ChEMBL document CHEMBL4261582, “Natural products as inhibitors of Leishmania major dihydroorotate dehydrogenase” (Eur J Med Chem, 2018).
One block for each molecule: values may come before it.

What was measured:
[1] = molecular target: T1, Dihydroorotate dehydrogenase (fumarate) (Leishmania major, UniProt Q4QEW7); experiment: Inhibition of recombinant oligo-histidine-tagged Leishmania major DHODH expressed in Escherichia coli BL21(DE3) cells using DHO as substrate measured after 60 secs; conditions: read-out: IC50
T1 sequence (Q4QEW7 whole entry): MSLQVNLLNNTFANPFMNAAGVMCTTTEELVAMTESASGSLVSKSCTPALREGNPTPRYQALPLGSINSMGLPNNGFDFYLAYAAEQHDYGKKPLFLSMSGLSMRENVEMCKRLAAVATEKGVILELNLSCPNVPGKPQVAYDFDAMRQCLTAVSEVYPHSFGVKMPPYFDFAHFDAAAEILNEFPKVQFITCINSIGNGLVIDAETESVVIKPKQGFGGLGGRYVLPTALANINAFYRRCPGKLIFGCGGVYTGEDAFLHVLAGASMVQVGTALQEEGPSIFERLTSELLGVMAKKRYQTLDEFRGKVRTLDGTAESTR

Leishmania amazonensis [2] = experiment: Antileishmanial activity against Leishmania amazonensis WHOM/BR/75/Josefa promastigotes after 72 hrs by Neubauer chamber method; format: functional, organism-based
Leishmania amazonensis [3] = experiment: Antileishmanial activity against Leishmania amazonensis WHOM/BR/75/Josefa amastigotes after 72 hrs by Neubauer chamber method; format: functional, organism-based
Leishmania donovani = experiment: Antileishmanial activity against Leishmania donovani MHOM/ET/67/L82 amastigotes after 72 hrs by Alamar Blue assay; format: functional, organism-based; conditions: MHOM/ET/67/L82, 72 h
Trypanosoma cruzi = experiment: Antitrypanosomal activity against Trypanosoma cruzi Tulahuen C2C4 trypomastigotes infected in rat skeletal myoblasts L-6 cells after 96 hrs by CPRG/Nonidet reagent based spectrophotometric method; format: functional, organism-based; conditions: Tulahuen C2C4, L6, 96 h
[4] = system: Trypanosoma brucei rhodesiense; experiment: Antitrypanosomal activity against Trypanosoma brucei rhodesiense STIB 900 trypomastigotes after 72 hrs by Alamar Blue assay; format: functional, organism-based; conditions: STIB 900, 72 h
Leishmania amazonensis [5] = experiment: Antileishmanial activity against Leishmania amazonensis MHOM/77BR/LTB0016 amastigotes infected in mouse peritoneal macrophages after 48 hrs by Giemsa staining-based assay; format: functional, organism-based; conditions: MHOM/77BR/LTB0016, 48 h
[6] = molecular target: T2, Dihydroorotate dehydrogenase (fumarate) (Leishmania major) (UniProt Q4QEW7); experiment: Binding affinity to Leishmania major DHODH assessed as change in melting temperature at 100 uM by differential scanning fluorimetry-based ThermoFMN assay
T2 sequence (whole entry): T1 sequence (Q4QEW7 whole entry)

[7] = molecular target: T2, Dihydroorotate dehydrogenase (fumarate) (Leishmania major); experiment: Binding affinity to Leishmania major DHODH assessed as change in melting temperature at 500 uM by differential scanning fluorimetry-based ThermoFMN assay
[8] = molecular target: T2, Dihydroorotate dehydrogenase (fumarate) (Leishmania major); experiment: Binding affinity to Leishmania major DHODH assessed as change in melting temperature at 1000 uM by differential scanning fluorimetry-based ThermoFMN assay
[9] = molecular target: T2, Dihydroorotate dehydrogenase (fumarate) (Leishmania major); experiment: Binding affinity to Leishmania major DHODH assessed as change in melting temperature at 100 uM by SYPRO orange dye-based differential scanning fluorimetry
[10] = molecular target: T2, Dihydroorotate dehydrogenase (fumarate) (Leishmania major); experiment: Binding affinity to Leishmania major DHODH assessed as change in melting temperature at 500 uM by SYPRO orange dye-based differential scanning fluorimetry
[11] = molecular target: T2, Dihydroorotate dehydrogenase (fumarate) (Leishmania major); experiment: Binding affinity to Leishmania major DHODH assessed as change in melting temperature at 1000 uM by SYPRO orange dye-based differential scanning fluorimetry
[12] = molecular target: Dihydroorotate dehydrogenase (quinone), mitochondrial (Homo sapiens) (UniProt Q02127); experiment: Inhibition of human DHODH at 100 uM
[13] = molecular target: T2, Dihydroorotate dehydrogenase (fumarate) (Leishmania major); experiment: Inhibition of recombinant oligo-histidine-tagged Leishmania major DHODH expressed in Escherichia coli BL21(DE3) cells at 100 uM using DHO as substrate measured after 60 secs
Leishmania braziliensis = experiment: Antileishmanial activity against Leishmania braziliensis H3227 MHOM/BR/94/H-3227 promastigotes after 72 hrs by MTT assay; format: functional, organism-based; conditions: H3227 MHOM/BR/94/H-3227, 72 h

Dihydroorotate dehydrogenase (quinone), mitochondrial (Homo sapiens), sequence (Q02127 whole entry): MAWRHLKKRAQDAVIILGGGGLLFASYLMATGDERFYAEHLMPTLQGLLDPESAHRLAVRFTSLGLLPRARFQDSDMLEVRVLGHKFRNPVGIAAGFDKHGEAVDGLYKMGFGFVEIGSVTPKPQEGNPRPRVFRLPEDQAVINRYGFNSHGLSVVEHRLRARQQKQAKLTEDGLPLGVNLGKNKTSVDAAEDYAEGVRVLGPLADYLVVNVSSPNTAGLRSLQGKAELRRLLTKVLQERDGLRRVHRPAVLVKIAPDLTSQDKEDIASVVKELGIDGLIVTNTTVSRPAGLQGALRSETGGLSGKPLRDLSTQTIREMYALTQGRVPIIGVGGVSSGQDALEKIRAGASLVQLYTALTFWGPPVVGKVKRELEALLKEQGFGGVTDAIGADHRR

Structure (SMILES): C=C1CC[C@H]2[C@@](C)(CCC[C@@]2(C)C(=O)O)[C@@H]1CC/C(C)=C/C(=O)O
IC50 [1]: 707 µM
IC50 (Leishmania amazonensis [2]): 83.7 to 111 µM
IC50 (Leishmania amazonensis [3]): 47.4 to 50.8 µM

Structure (SMILES): COc1ccc(/C=C/C(=O)NC2CCCN2C(=N)N)cc1O (stereo not drawn)
IC50 [1]: 610 µM

Structure (SMILES): C=C1[C@@H]2CC[C@H]3[C@]4(C)CCC[C@@](C)(C(=O)O)[C@H]4CC[C@]3(C2)[C@H]1OC(=O)/C=C/c1ccccc1
IC50 [1]: 1420 µM

Structure (SMILES): C=C1C(=O)O[C@@H]2/C=C(/C)C3=CC(=O)[C@@](C)(C[C@@H](OC(=O)/C(C)=C/C)[C@@H]12)O3 [ATRIPLICIOLIDTIGLATE]
IC50 [1]: 872 µM
ΔTm [6]: -0.35 °C
ΔTm [7]: -0.85 °C
ΔTm [8]: -1.21 °C
ΔTm [9]: -0.47 °C
ΔTm [10]: -2.52 °C
ΔTm [11]: -5.97 °C

Structure (SMILES): C=C1C(=O)O[C@@H]2[C@H]3C(C)=CC(=O)C3=C(C)C[C@@H](OC(=O)[C@]3(C)O[C@@H]3C)[C@@H]12
IC50 [1]: 585 µM
ΔTm [6]: -0.26 °C
ΔTm [7]: -0.64 °C
ΔTm [8]: -0.85 °C
ΔTm [9]: -0.38 °C
ΔTm [10]: -0.75 °C
ΔTm [11]: -1.01 °C

Structure (SMILES): O=c1cc(-c2ccc(O)cc2)oc2cc(O[C@@H]3O[C@H](CO)[C@@H](O)[C@H](O)[C@H]3O)cc(O)c12 [APIGETRIN]
inhibition [12]: 10%
inhibition [13]: 47%
IC50 [1]: 105 µM
IC50 (Leishmania donovani): 4.86 µM
IC50 (Trypanosoma cruzi): 69.4 µM
IC50 [4]: 52.5 µM

Structure (SMILES): C=C1C(=O)O[C@@H]2/C=C(/C)C(=O)/C=C/[C@](C)(O)C[C@@H](OC(=O)C(C)C)[C@@H]12 [TAGITININ C]
IC50 [1]: 426 µM
IC50 (Leishmania braziliensis): 9.2 µM

Structure (SMILES): CC[C@@H](C)[C@@]1(O)O[C@H]2C[C@@]3(C)OC(=CC3=O)/C(COC(C)=O)=C\[C@H]3OC(=O)[C@@]1(C)[C@H]23
IC50 [1]: 1200 µM
ΔTm [6]: -0.41 °C
ΔTm [7]: -0.65 °C
ΔTm [8]: -0.76 °C
ΔTm [9]: -0.86 °C
ΔTm [10]: -1.8 °C
ΔTm [11]: -1.39 °C

Structure (SMILES): C=C1C(=O)O[C@@H]2/C=C(/C)C(=O)[C@@H]3O[C@H]3[C@](C)(O)C[C@@H](OC(=O)C(C)C)[C@@H]12
inhibition [12]: 12%
inhibition [13]: 42%
IC50 [1]: 103 µM
IC50 (Leishmania braziliensis): 6 µM

Structure (SMILES): O=C(/C=C/c1ccc(O)c(O)c1)O[C@@H]1C[C@@](O)(C(=O)O)C[C@@H](O)[C@@H]1O
IC50 [1]: 1130 µM

Structure (SMILES): C=C(C)C(=O)O[C@@H]1C[C@@](C)(O)[C@@H]2C(=O)C=C(C)[C@@H]2[C@H]2OC(=O)C(=C)[C@@H]21
IC50 [1]: 168 µM

Structure (SMILES): O=C(O)c1cc(=O)[nH]c(=O)[nH]1
ΔTm [6]: 1.29 °C
ΔTm [7]: 4.32 °C
ΔTm [8]: 6.12 °C
ΔTm [9]: 0.39 °C
ΔTm [10]: 1.43 °C
ΔTm [11]: 1.62 °C

The next lines start with results.

IC50 [1]: 1530 µM
IC50 (Trypanosoma cruzi): 49.1 µM
IC50 [4]: 6.9 µM
IC50 (Leishmania amazonensis [5]): 4.4 µM
Structure (SMILES): C[C@@H]1O[C@@H](OC[C@H]2O[C@@H](Oc3c(-c4ccc(O)c(O)c4)oc4cc(O)cc(O)c4c3=O)[C@H](O)[C@@H](O)[C@@H]2O)[C@H](O)[C@H](O)[C@H]1O [RUTIN]
IC50 (Leishmania donovani): 49.1 µM

IC50 [1]: 922 µM
IC50 [4]: 112 µM
Structure (SMILES): O=C(O)c1ccc(O)c(O)c1 [PROTOCATECHUIC ACID]

IC50 [1]: 467 µM
IC50 (Trypanosoma cruzi): 555 µM
IC50 [4]: 319 µM
Structure (SMILES): O=c1ccc2ccc(O)cc2o1 [UMBELLIFERONE]
IC50 (Leishmania donovani): 172 µM

IC50 [1]: 481 µM
IC50 (Trypanosoma cruzi): 73.3 µM
IC50 [4]: 61.1 µM
Structure (SMILES): O=c1c(O)c(-c2ccccc2)oc2cc(O)cc(O)c12 [GALANGIN]
IC50 (Leishmania donovani): 5.55 µM

IC50 [1]: 262 µM
Structure (SMILES): COc1ccc(-c2oc3cc(O)c(OC)c(O)c3c(=O)c2OC)cc1 [SANTIN]

IC50 [1]: 806 µM
IC50 (Trypanosoma cruzi): 183 µM
IC50 [4]: 265 µM
IC50 (Leishmania amazonensis [5]): 13.8 µM
Structure (SMILES): O=C(O)/C=C/c1ccccc1O [O-COUMARIC ACID]
IC50 (Leishmania donovani): 36.6 µM

IC50 [1]: 642 µM
Structure (SMILES): O=C(/C=C/c1ccc(O)c(O)c1)O[C@@H]1[C@H](O)C[C@@](O)(C(=O)O)C[C@H]1OC(=O)/C=C/c1ccc(O)c(O)c1
